From patent US7968713B2, “Method of synthesizing quinoxaline derivative by microwave irradiation” (Nihon University, priority 2005, dated 2011) come the findings set out here.

Series [1] has as its system HepG2 cells. The series can be described thus: Hypoxic selective cytotoxicity test with respect to HepG2 cells (colony forming ratio). Type of series: cell-based, human. As to conditions: 20 μM exposed for six hours, cultivated for seven days; for Activity (Surviving fraction) (%) hypoxia: hypoxic state (hypoxia); for Activity (Surviving fraction) (%) noroxia: usual oxygen state (noroxia). The method, then: (Hypoxic Selective Cytotoxicity Test with Respect to HepG2 Cells)
A cytotoxicity reinforcing effect on a hypoxic condition was tested using HepG2 cells which were human liver cancer cells. In a usual oxygen state (noroxia) and a hypoxic state (hypoxia), 20 μM of each quinoxaline 1,4-dioxide derivative shown in Table 1 (Compounds 1 to 8 including R1 to R6 shown in Table 1 in the above general formula (3)) was exposed for six hours, and cultivated for seven days, and then colony forming ratios were compared. It is to be noted that in Table 1, “Ph-NO2” is a group in which a nitro group is introduced into a para position of a benzoyl group.

Consider `Cc1c(C(=O)c2ccc([N+](=O)[O-])cc2)[n+]([O-])c2cc(Cl)c(Cl)cc2[n+]1[O-]` [Compound 7, 6,7-dichloro-3-methyl-2-(4′-nitrobenzoyl)-quinoxaline 1,4-dioxide], for which the melting point – broadly, the temperature of the solid-liquid transition – was in the range of 215 to 217 °C. In series [1], the “Activity (Surviving fraction) (%) hypoxia” value is 6% and the “Activity (Surviving fraction) (%) noroxia” value amounted to 73%.

Regarding `Cc1c(C(=O)c2ccc([N+](=O)[O-])cc2)[n+]([O-])c2cc(F)c(F)cc2[n+]1[O-]` [Compound 8, 6,7-difluoro-3-methyl-2-(41-nitrobenzoyl)-quinoxaline 1,4-dioxide], the melting point was 232 to 233 °C. Besides, in series [1], the “Activity (Surviving fraction) (%) hypoxia” value is 1% and the “Activity (Surviving fraction) (%) noroxia” value worked out at 44%.

The compound `O=C(c1ccccc1)c1c(-c2ccccc2)[n+]([O-])c2cc(F)c(F)cc2[n+]1[O-]` [Example 2, 2-benzoyl-6,7-difluoro-3-phenylquinoxaline 1,4-dioxide] gave a melting point of 249 to 251 °C.

Turning to `COc1cc2c(cc1OC)[n+]([O-])c(-c1ccccc1)c(C(=O)c1ccccc1)[n+]2[O-]` [Example 3, 2-benzoyl-6,7-dimethoxy-3-phenylquinoxaline 1,4-dioxide], the melting point is 286 °C (dec.).

`COc1cc2c(cc1OC)[n+]([O-])c(C(C)=O)c(C)[n+]2[O-]` [Example 5, 2-acetyl-6,7-dimethoxy-3-methylquinoxaline 1,4-dioxide] yielded a melting point of 254 °C.
